Like-named read-outs stand apart in the source and are kept apart here.
Assays:
[1] = system: Bacteroides fragilis; experiment: Agar-dilution MIC (anaerobes); format: cell-based; conditions: Table 14
Text: (§1) The agar-dilution procedure described by the International Collaborative study (ICS) group was used to determine the minimum inhibitory concentrations (MIC's).

[2] = system: Clostridium septicum; experiment: Agar-dilution MIC (anaerobes); format: cell-based; conditions: Table 14; Clostridium septicum 1128
[3] = system: Bacteroides corrodens; experiment: Agar-dilution MIC (anaerobes); format: cell-based; conditions: Table 14; Bacteroides corrodens 1874
[4] = Solubility in solvents; format: physicochemical; conditions: solvents as named
Text: The seven antibiotic factors are recovered from the fermentation and are obtained as a mixture, the A41030 complex. It will be recognized that the ratio of the factors in the A41030 complex will vary, depending upon the fermentation conditions used. The individual factors […], and G are separated and isolated as individual compounds, as hereinafter described.

[5] = system: Peptostreptococcus intermedius; experiment: Agar-dilution MIC (anaerobes); format: cell-based; conditions: Table 14; Peptostreptococcus intermedius 1264
[6] = system: Clostridium difficile; format: cell-based; conditions: Table 14; Clostridium difficile 2994
[7] = system: Peptococcus prevoti; experiment: Agar-dilution MIC (anaerobes); format: cell-based; conditions: Table 14; Peptococcus prevoti 1281
[8] = system: Salmonella typhi; experiment: Agar-dilution MIC; format: cell-based; conditions: Table 17, 24 hours
[9] = system: Staphylococcus aureus; experiment: Agar-dilution MIC; format: cell-based; conditions: Table 17, 24 hours
[10] = system: Propionibacterium acnes; experiment: Agar-dilution MIC (anaerobes); format: cell-based; conditions: Table 14; Propionibacterium acnes 79
Text: Antibiotic A41030 factors A, B and C have also been tested and found to be active against a genus of anaerobic bacteria identified as Propionibacterium acnes.

[11] = system: Staph. aureus; experiment: Experimental bacterial infection in mice, subcutaneous ED50; format: in vivo; conditions: two doses subcutaneously
Procedure: (§2) All of the A41030 factors tested have shown in vivo antimicrobial activity against experimental bacterial infections. When two doses of test compound were administered subcutaneously to mice in illustrative infections, the activity observed is measured as an ED50 value [effective dose in mg./kg. to protect fifty percent of the test animals: See Warren Wick, et al., J. Bacteriol. 81, 233-235 (1961)].

[12] = system: S. pyogenes; experiment: as above; format: in vivo; conditions: two doses subcutaneously
Procedure: as §2

[13] = system: S. pneumoniae; experiment: as above; format: in vivo; conditions: two doses subcutaneously
Procedure: as §2

[14] = system: Streptococcus sp. (Group D); experiment: Agar-dilution MIC; format: cell-based; conditions: Table 17, 24 hours
Text: as §1

[15] = system: Staphylococcus epidermidis; experiment: Agar-dilution MIC; format: cell-based; conditions: Table 17, 24 hours
Text: as §1

[16] = system: Streptococcus pyogenes; experiment: Agar-dilution MIC; format: cell-based; conditions: Table 17; 24 hours; Streptococcus pyogenes C203
Text: as §1

[17] = system: Streptococcus pneumoniae; experiment: Agar-dilution MIC; format: cell-based; conditions: Table 17; 24 hours; Streptococcus pneumoniae Park I
Text: as §1

[18] = system: Bacteroides melaninogenicus; experiment: Agar-dilution MIC (anaerobes); format: cell-based; conditions: Table 14; Bacteroides melaninogenicus 2736
[19] = system: Peptococcus asaccharolyticus; experiment: Agar-dilution MIC (anaerobes); format: cell-based; conditions: Table 14; Peptococcus asaccharolyticus 1302
[20] = system: Hemophilus influenzae; experiment: Agar-dilution MIC; format: cell-based; conditions: Table 17, 24 hours
[21] = system: Clostridium difficile; format: cell-based; conditions: Table 16
Text: The A41030 antibiotic factors A, B, C, D, E, F, and G, are also active against a number of strains of Clostridium difficile, as determined by the agar-dilution method.

[22] = system: B. thetaiotaomicron; format: cell-based; conditions: Table 14; Bacteroides thetalotaomicron 1438
Text: as §1

[23] = system: Clostridium perfringens; format: cell-based; conditions: Table 14; Clostridium perfringens 81
[24] = Electrometric titration (pKa); format: physicochemical; conditions: electrometric titration in 66% dimethylformamide in water
[25] = system: Fusobacterium symbiosum; experiment: Agar-dilution MIC (anaerobes); format: cell-based; conditions: Table 14; Fusobacterium symbiosum 1470
[26] = system: Bacteroides vulgatis; experiment: Agar-dilution MIC (anaerobes); format: cell-based; conditions: Table 14; Bacteroides vulgatis 1211
[27] = system: Peptostreptococcus anaerobius; experiment: Agar-dilution MIC (anaerobes); format: cell-based; conditions: Table 14; Peptostreptococcus anaerobius 1428
[28] = system: Eubacterium aerofaciens; experiment: Agar-dilution MIC (anaerobes); format: cell-based; conditions: Table 14; Eubacterium aerofaciens 1235
[29] = system: Fusobacterium necrophorum; experiment: Agar-dilution MIC (anaerobes); format: cell-based; conditions: Table 14; Fusobacterium necrophorum 6054A
[30] = system: Klebsiella pneumoniae; experiment: Agar-dilution MIC; format: cell-based; conditions: Table 17; 24 hours; Klebsiella pneumoniae X26
[31] = Staphylococcus epidermidis EPI1

## A41030 factor E
[1]; Bacteroides fragilis 111
  MIC: 64 µg/mL
[1]; Bacteroides fragilis 1877
  MIC: 32 µg/mL
[1]; Bacteroides fragilis 1936B
  MIC: 64 µg/mL
[2]
  MIC: 0.5 µg/mL
[3]
  MIC: 64 µg/mL
[4]
  Solubility: soluble in the same solvents as factor A
[5]
  MIC: 32 µg/mL
[6]
  MIC: 0.5 µg/mL
[7]
  MIC: 32 µg/mL
[8]; Salmonella typhi 1335
  MIC: > 128 µg/mL
[8]; Salmonella typhi X514
  MIC: > 128 µg/mL
[9]; Staphylococcus aureus 3055
  MIC: 0.125 µg/mL
[9]; Staphylococcus aureus S13E
  MIC: 0.25 µg/mL
[9]; Staphylococcus aureus V41
  MIC: 0.25 µg/mL
[9]; Staphylococcus aureus X400
  MIC: 0.25 µg/mL
[10]
  MIC: 0.5 µg/mL
[11]
  ED50: < 0.31 mg/kg
[12]
  ED50: 3.54 mg/kg
[13]
  ED50: 3.11 mg/kg
[14]; Streptococcus sp. Group D 9960
  MIC: 1 µg/mL
[14]; Streptococcus sp. Group D X66
  MIC: 1 µg/mL
[15]; [31]
  MIC: 0.25 µg/mL
[16]
  MIC: 0.25 µg/mL
[17]
  MIC: 0.25 µg/mL
[18]
  MIC: 32 µg/mL
[19]
  MIC: ≤ 0.25 µg/mL
[20]; Haemophilus influenzae 76
  MIC: 8 µg/mL
[20]; Haemophilus influenzae C.L.
  MIC: 8 µg/mL
[21]; C. difficile 78
  MIC: 0.5 µg/mL
[21]; C. difficile 107B
  MIC: 0.5 µg/mL
[21]; C. difficile 111F
  MIC: 0.5 µg/mL
[21]; C. difficile 1153
  MIC: 1.0 µg/mL
[21]; C. difficile 2634
  MIC: 1.0 µg/mL
[21]; C. difficile 3424-5B
  MIC: 0.5 µg/mL
[21]; C. difficile 3816
  MIC: 0.5 µg/mL
[21]; C. difficile 3950
  MIC: 0.5 µg/mL
[21]; C. difficile 6890
  MIC: 0.5 µg/mL
[21]; C. difficile 8484
  MIC: 0.5 µg/mL
[21]; C. difficile A-194
  MIC: 0.5 µg/mL
[21]; C. difficile A-195
  MIC: 0.5 µg/mL
[21]; C. difficile A-196
  MIC: 1.0 µg/mL
[21]; C. difficile A-279
  MIC: 0.5 µg/mL
[21]; C. difficile A-280
  MIC: 0.5 µg/mL
[21]; C. difficile A-281
  MIC: 1.0 µg/mL
[21]; C. difficile WAL-2112
  MIC: 0.5 µg/mL
[21]; C. difficile WAL-3657
  MIC: 0.5 µg/mL
[21]; C. difficile WAL-4268
  MIC: 0.5 µg/mL
[22]
  MIC: 64 µg/mL
[23]
  MIC: 1.0 µg/mL
[24]
  pKa, first titratable group: about 5.8
  pKa, second titratable group: ~7.7
[25]
  MIC: 1.0 µg/mL
[26]
  MIC: 32 µg/mL
[27]
  MIC: 32 µg/mL
[28]
  MIC: 0.5 µg/mL
[29]
  MIC: 0.5 µg/mL

## A41030 factor G
[1]; Bacteroides fragilis 111
  MIC: 32 µg/mL
[1]; Bacteroides fragilis 1877
  MIC: 32 µg/mL
[1]; Bacteroides fragilis 1936B
  MIC: 64 µg/mL
[2]
  MIC: 2 µg/mL
[3]
  MIC: 32 µg/mL
[4]
  Solubility: soluble in the same solvents as is factor A
[5]
  MIC: 2 µg/mL
[6]
  MIC: 2 µg/mL
[7]
  MIC: 2 µg/mL
[8]; Salmonella typhi 1335
  MIC: > 128 µg/mL
[8]; Salmonella typhi X514
  MIC: > 128 µg/mL
[10]
  MIC: 1.0 µg/mL
[14]; Streptococcus sp. Group D 9960
  MIC: 4 µg/mL
[14]; Streptococcus sp. Group D X66
  MIC: 4 µg/mL
[15]; [31]
  MIC: 0.5 µg/mL
[15]; Staphylococcus epidermidis EPI2
  MIC: 0.5 µg/mL
[16]
  MIC: 2 µg/mL
[17]
  MIC: 2 µg/mL
[18]
  MIC: 64 µg/mL
[19]
  MIC: 1.0 µg/mL
[20]; Haemophilus influenzae 76
  MIC: 32 µg/mL
[20]; Haemophilus influenzae C.L.
  MIC: 32 µg/mL
[21]; C. difficile 78
  MIC: 1.0 µg/mL
[21]; C. difficile 107B
  MIC: 1.0 µg/mL
[21]; C. difficile 111F
  MIC: 1.0 µg/mL
[21]; C. difficile 1153
  MIC: 1.0 µg/mL
[21]; C. difficile 2634
  MIC: 1.0 µg/mL
[21]; C. difficile 3424-5B
  MIC: 1.0 µg/mL
[21]; C. difficile 3816
  MIC: 1.0 µg/mL
[21]; C. difficile 3950
  MIC: 1.0 µg/mL
[21]; C. difficile 6890
  MIC: 1.0 µg/mL
[21]; C. difficile 8484
  MIC: 1.0 µg/mL
[21]; C. difficile A-194
  MIC: 1.0 µg/mL
[21]; C. difficile A-195
  MIC: 1.0 µg/mL
[21]; C. difficile A-196
  MIC: 1.0 µg/mL
[21]; C. difficile A-279
  MIC: 1.0 µg/mL
[21]; C. difficile A-280
  MIC: 1.0 µg/mL
[21]; C. difficile A-281
  MIC: 1.0 µg/mL
[21]; C. difficile WAL-2112
  MIC: 1.0 µg/mL
[21]; C. difficile WAL-3657
  MIC: 1.0 µg/mL
[21]; C. difficile WAL-4268
  MIC: 1.0 µg/mL
[22]
  MIC: 64 µg/mL
[23]
  MIC: 2 µg/mL
[30]
  MIC: 64 µg/mL
[24]
  pKa, first titratable group: about 5.4
  pKa, second titratable group: ~7.0
[25]
  MIC: 2 µg/mL
[26]
  MIC: 64 µg/mL
[27]
  MIC: ≤ 0.5 µg/mL
[28]
  MIC: 2 µg/mL
[29]
  MIC: 2 µg/mL

From patent US4559323A, “A41030 Antibiotics” (Eli Lilly and Company, priority 1984, dated 1985)
